Biological target: p38α (Homo sapiens, UniProt Q16539)
Assay: p38α/MK2 cascade assay
Type: biochemical
Conditions: Table 2; same p38α/MK2 cascade assay; 40 minutes preincubation; read-out: p38a/MK2 Cascade 40 min Pre-Incuabtion (% Inhibition): IC50
Summary of the method: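 In a cascade format, p38α was preincubated 40 min with inhibitor (1000–0.05 nM) before adding 1 nM nonactive MK2 (54-400), 5 μM MgATP and 0.5 μM FITC-Hsp27 peptide. Reaction ran 60 min in HEPES pH 7.5 with MgCl2, DTT, 2% DMSO, then EDTA-quenched. Peptide phosphorylation was measured by Caliper mobility shift to give IC50.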

p38α, sequence (Q16539 whole entry): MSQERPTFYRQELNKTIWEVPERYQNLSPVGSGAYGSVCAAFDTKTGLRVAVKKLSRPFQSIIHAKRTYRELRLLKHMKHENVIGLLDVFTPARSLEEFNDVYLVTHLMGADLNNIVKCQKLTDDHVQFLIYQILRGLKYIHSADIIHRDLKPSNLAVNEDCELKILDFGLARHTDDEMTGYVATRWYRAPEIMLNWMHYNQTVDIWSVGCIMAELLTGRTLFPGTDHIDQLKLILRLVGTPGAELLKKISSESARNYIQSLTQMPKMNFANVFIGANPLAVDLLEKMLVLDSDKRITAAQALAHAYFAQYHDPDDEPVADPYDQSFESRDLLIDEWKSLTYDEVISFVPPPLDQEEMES

| SMILES | IC50 [nM] |
| --- | --- |
| COc1ccccc1Cn1c(C)cc(OCc2ccccc2CNC(=O)Nc2cc(C(C)(C)C)nn2-c2cccc(O)c2)c(Cl)c1=O [Example 247, 1-[3-tert-butyl-1-(3-hydroxyphenyl)-1H-pyrazol-5-yl]-3-[2-({[3-chloro-1-(2-methoxybenzyl)-6-methyl-2-oxo-1,2-dihydropyridin-4-yl]oxy}methyl)benzyl]urea] | 10.5 |
| COc1ccc(Cn2c(C)cc(OCc3ccccc3CNC(=O)Nc3cc(C(C)(C)C)nn3-c3cccc(OCCO)c3)c(C)c2=O)cc1C#N [Example 250, 1-{3-tert-butyl-1-[3-(2-hydroxyethoxy)phenyl]-1H-pyrazol-5-yl}-3-[2-({[1-(3-cyano-4-methoxybenzyl)-3,6-dimethyl-2-oxo-1,2-dihydropyridin-4-yl]oxy}methyl)benzyl]urea] | 8.4 |
| COc1ccc(Cn2c(C)cc(OCc3ccccc3CNC(=O)Nc3cc(C(C)(C)C)nn3-c3ccc(Cl)c(O)c3)c(C)c2=O)cc1C#N [Example 251, 1-[3-tert-butyl-1-(4-chloro-3-hydroxyphenyl)-1H-pyrazol-5-yl]-3-[2-({[1-(3-cyano-4-methoxybenzyl)-3,6-dimethyl-2-oxo-1,2-dihydropyridin-4-yl]oxy}methyl)benzyl]urea] | 8.4 |
| COc1ccc(Cn2c(C)cc(OCc3ccccc3CNC(=O)Nc3cc(C(C)(C)C)nn3-c3ccc(O)cc3)c(C)c2=O)cc1C#N [Example 253, 1-[3-tert-butyl-1-(4-hydroxyphenyl)-1H-pyrazol-5-yl]-3-[2-({[1-(3-cyano-4-methoxybenzyl)-3,6-dimethyl-2-oxo-1,2-dihydropyridin-4-yl]oxy}methyl)benzyl]urea] | 8.3 |
| COc1cc(Cn2c(C)cc(OCc3ccccc3CNC(=O)Nc3cc(C(C)(C)C)nn3-c3ccc(O)c(Cl)c3)c(Cl)c2=O)ccc1Cl [Example 254, 1-[3-tert-butyl-1-(3-chloro-4-hydroxyphenyl)-1H-pyrazol-5-yl]-3-[2-({[3-chloro-1-(4-chloro-3-methoxybenzyl)-6-methyl-2-oxo-1,2-dihydropyridin-4-yl]oxy}methyl)benzyl]urea] | 26.6 |
| COc1cc(Cn2c(C)cc(OCc3ccccc3CNC(=O)Nc3cc(C(C)(C)C)nn3-c3cccc(OCCO)c3)c(Cl)c2=O)ccc1Cl [Example 255, 1-{3-tert-butyl-1-[3-(2-hydroxyethoxy)phenyl]-1H-pyrazol-5-yl}-3-[2-({[3-chloro-1-(4-chloro-3-methoxybenzyl)-6-methyl-2-oxo-1,2-dihydropyridin-4-yl]oxy}methyl)benzyl]urea] | 7.2 |

More lines, in order of falling IC50, values ahead:

| IC50 [nM] | SMILES |
| --- | --- |
| 15.1 | COc1ccccc1Cn1c(C)cc(OCc2ccccc2CNC(=O)Nc2cc(C(C)(C)C)nn2-c2ccc(O)c(Cl)c2)c(Cl)c1=O [Example 248, 1-[3-tert-butyl-1-(3-chloro-4-hydroxyphenyl)-1H-pyrazol-5-yl]-3-[2-({[3-chloro-1-(2-methoxybenzyl)-6-methyl-2-oxo-1,2-dihydropyridin-4-yl]oxy}methyl)benzyl]urea] |
| 9.6 | COc1ccc(Cn2c(C)cc(OCc3ccccc3CNC(=O)Nc3cc(C(C)(C)C)nn3-c3ccc(O)c(Cl)c3)c(C)c2=O)cc1C#N [Example 249, 1-[3-tert-butyl-1-(3-chloro-4-hydroxyphenyl)-1H-pyrazol-5-yl]-3-[2-({[1-(3-cyano-4-methoxybenzyl)-3,6-dimethyl-2-oxo-1,2-dihydropyridin-4-yl]oxy}methyl)benzyl]urea] |
| 6 | COc1ccc(Cn2c(C)cc(OCc3ccccc3CNC(=O)Nc3cc(C(C)(C)C)nn3-c3cccc(O)c3)c(C)c2=O)cc1C#N [Example 252, 1-[3-tert-butyl-1-(3-hydroxyphenyl)-1H-pyrazol-5-yl]-3-[2-({[1-(3-cyano-4-methoxybenzyl)-3,6-dimethyl-2-oxo-1,2-dihydro-pyridin-4-yl]oxy}methyl)benzyl]urea] |
